In this series the test system is microbiota present in the faecal samples. The series can be described thus: Oligosaccharide distribution (HPAEC-PAD peak areas) during faecal fermentation. From the text:
HPAEC-PAD (high performance anion exchange chromatography) equipped with a PA-1 column was used for separation of mono- and oligosaccharides of the different samples. Efforts were made to achieve a separation quality described in van Leeuwen et al., Carbohydrate Research 2016, 425, 48-58. […] The samples as used for GPC were 100-fold diluted with DMSO before injection.
The distribution of oligosaccharides in the mixtures was also monitored over this time period using the method described above in relation to Table 2.

Turning to `O=C[C@H](O)[C@@H](O)[C@H](O)[C@H](O)CO` [Glucose], the Peak areas runs as follows: (in Comp. Ex. 1, 0 h) 19.5; (in Comp. Ex. 1, 6 h, Donor A) 2.9; (in Comp. Ex. 1, 6 h, Donor B) 34.1; (in Comp. Ex. 1, 6 h, Donor C) 0.2; (in Comp. Ex. 1, 24 h, Donor A) 0.0; (in Comp. Ex. 1, 24 h, Donor B) 0.1. This compound also came in with a Peak areas (in Comp. Ex. 1, 24 h, Donor C) of 0.0; a Peak areas (in Comp. Ex. 1, 48 h, Donor A) of 0.0; a Peak areas (in Comp. Ex. 1, 48 h, Donor B) of 0.0; a Peak areas (in Comp. Ex. 1, 48 h, Donor C) of 0.0; a Peak areas (in Example 2, 0 h) of 17.5; a Peak areas (in Example 2, 6 h, Donor A) of 2.6. In addition, the Peak areas runs as follows: (in Example 2, 6 h, Donor B) 26.9; (in Example 2, 6 h, Donor C) 0.3; (in Example 2, 24 h, Donor A) 0.0; (in Example 2, 24 h, Donor B) 0.0; (in Example 2, 24 h, Donor C) 0.0; (in Example 2, 48 h, Donor A) 0.0. In addition, the Peak areas is on record as 0.0 (in Example 2, 48 h, Donor B) and 0.0 (in Example 2, 48 h, Donor C).

Consider `OC[C@H]1O[C@@H](O[C@H]2[C@H](O)[C@@H](O)C(O)O[C@@H]2CO)[C@H](O)[C@@H](O)[C@H]1O` (stereo partly drawn) [Lactose], for which the Peak areas reads like this: (in Comp. Ex. 1, 0 h) 48.4; (in Comp. Ex. 1, 6 h, Donor A) 0.7; (in Comp. Ex. 1, 6 h, Donor B) 1.9; (in Comp. Ex. 1, 6 h, Donor C) 0.4; (in Comp. Ex. 1, 24 h, Donor A) 0.4; (in Comp. Ex. 1, 24 h, Donor B) 0.5. Also, the Peak areas was 0.4 (in Comp. Ex. 1, 24 h, Donor C); 0.3 (in Comp. Ex. 1, 48 h, Donor A); 0.5 (in Comp. Ex. 1, 48 h, Donor B); 0.3 (in Comp. Ex. 1, 48 h, Donor C); 30.9 (in Example 2, 0 h); 0.3 (in Example 2, 6 h, Donor A). Also, the Peak areas was found to be 5.3 (in Example 2, 6 h, Donor B); 0.6 (in Example 2, 6 h, Donor C); 0.3 (in Example 2, 24 h, Donor A); 0.4 (in Example 2, 24 h, Donor B); 0.4 (in Example 2, 24 h, Donor C); 0.3 (in Example 2, 48 h, Donor A). In addition, the Peak areas by setting is: (in Example 2, 48 h, Donor B) 0.5; (in Example 2, 48 h, Donor C) 0.3.

Take `O=C[C@H](O)[C@@H](O)[C@@H](O)[C@H](O)CO` [Galactose]: the Peak areas is, setting by setting: (in Comp. Ex. 1, 0 h) 0.5; (in Comp. Ex. 1, 6 h, Donor A) 2.4; (in Comp. Ex. 1, 6 h, Donor B) 45.1; (in Comp. Ex. 1, 6 h, Donor C) 0.7; (in Comp. Ex. 1, 24 h, Donor A) 0.0; (in Comp. Ex. 1, 24 h, Donor B) 0.1. The Peak areas (in Comp. Ex. 1, 24 h, Donor C) is 0.0; the Peak areas (in Comp. Ex. 1, 48 h, Donor A) is 0.0; the Peak areas (in Comp. Ex. 1, 48 h, Donor B) was determined as 0.0; the Peak areas (in Comp. Ex. 1, 48 h, Donor C) was found to be 0.0; the Peak areas (in Example 2, 0 h) is given as 1.3; the Peak areas (in Example 2, 6 h, Donor A) was determined as 2.1. The Peak areas worked out at 47.3 (in Example 2, 6 h, Donor B); 0.8 (in Example 2, 6 h, Donor C); 0.0 (in Example 2, 24 h, Donor A); 0.1 (in Example 2, 24 h, Donor B); 0.0 (in Example 2, 24 h, Donor C); 0.0 (in Example 2, 48 h, Donor A). The Peak areas reads like this: (in Example 2, 48 h, Donor B) 0.0; (in Example 2, 48 h, Donor C) 0.0.
